We go through eight compounds from patent EP1992228A1, “Insecticidal substituted thiourea derivatives” (Bayer CropScience AG, priority 2007, dated 2008).

Molecules are shown by their SMILES. A value given as a limit tells only on which side of the number the result lay.

As usually defined, the chromatographic logP is a lipophilicity value derived from retention on a column. The low end stands for a more hydrophilic compound, the high end for a more lipophilic compound. A word on the mortality: it is the share of the test organisms that died. Low values mean a weak lethal effect, high ones a strong lethal effect.

Data set [1] can be described thus: logP (HCOOH) determination. The data set is classed as physicochemical.
Data set [2] relates to Myzus persicae. Briefly: Myzus persicae-test (MYZUPE, spray application). The data set is classed as in vivo. The settings on record: spray on Chinese cabbage leaf-disks, green peach aphid, all instars; for mortality at 100 g/ha: application rate of 100 g/ha; for mortality at 500 g/ha: application rate of 500 g/ha. The procedure:
Myzus persicae-test (MYZUPE, spray application) [table] [table] To produce a suitable preparation of active compound, 1 part by weight of active compound is mixed with the stated amount of solvent and emulsifier, and the concentrate is diluted with emulsifier-containing water to the desired concentration. Chinese cabbage (Brassica pekinensis) leaf-disks infected with all instars of the green peach aphid (Myzus persicae), are sprayed with a preparation of the active ingredient at the desired concentration. After the specified period of time, mortality in % is determined. 100 % means that all aphids have been killed; 0 % means that none of the […] have been killed.

The subject of data set [3] is Boophilus microplus. Briefly: Boophilus microplus-test (injektion). The data set is classed as in vivo. The following applies: application rate of 20 µg/animal; injected in the abdomen. The procedure:
Boophilus microplus-test (injektion)
(§1) To produce a suitable preparation of active compound, 1 part by weight of active compound is mixed with the stated amount of solvent and emulsifier, and the concentrate is diluted with emulsifier-containing water to the desired concentration.
The solution of the active compound is injected in the abdomen (Boophilus microplus); the animals are transferred into a cup and stayed in a rooming with an air condition.
After the specified period of time, the efficiany mortality in % is determined. 100 % means that no tick has lay fertile eggs.

For data set [4], the system named is Tetranychus urticae. The data set is described as follows: Tetranychus-test, OP-resistant (TETRUR, spray application). The settings on record: application rate of 100 g/ha, spray on French bean, two spotted spidermite, all stages. The data set is classed as in vivo. The protocol:
Tetranychus-test, OP-resistant (TETRUR, spray application)
as §1
French bean (Phaseolus vulgaris) which are heavily infested with all stages of the two spotted spidermite (Tetranychus urticae), are sprayed with a preparation of the active ingredient at the desired concentration.
After the specified period of time, mortality in % is determined. 100 % means that all spider mites have been killed; 0 % means that none of the […] have been killed.

For data set [5], the system named is Meloidogyne incognita. Briefly: Meloidogyne-test, OP resistant (MELGIN spray application). The following applies: application rate of 20 ppm, sand with egg/larval suspension and lettuce seeds, read-out: activity (nematicidal efficacy in % with reference to gall formation). The class given is in vivo. The protocol:
Meloidogyne-test, OP resistant (MELGIN spray application)
as §1
Containers are filled with sand, active compound solution, Meloidogyne incognita egg/larval suspension and lettuce seeds. The lettuce seeds germinate and the plantlets develop. The galls develop on the roots.
After the desired time, the nematicidal efficacy is determined in % with reference to gall formation. 100 % means that no galls were found; 0 % means that the number of galls on the treated plants corresponds to that of the untreated control.

`C[C@H](NC(=S)NCCO)c1ccc(F)cc1` [EXAMPLE 1]: the chromatographic logP in data set [1] came to 1.52.
Regarding `CC(NC(=S)NCCO)c1cccc(F)c1` (centres unmarked) [compound 3], the mortality at 100 g/ha in data set [2] is ≥ 80%. Besides, in data set [3], the “efficiency (100 % means that no tick has lay fertile eggs)” value is on record as ≥ 80%.
Take `CC[C@H](NC(=S)NCCO)c1ccccc1` [compound 13]: the mortality at 500 g/ha in data set [2] was ≥ 80%.
Turning to `C[C@H](NC(=S)NCCO)c1ccc(Cl)cc1` [Compound No. 158], in data set [2], the mortality at 500 g/ha is ≥ 80%. For the same compound, the mortality at 100 g/ha in data set [4] is ≥ 80%. The inhibition at 20 ppm in data set [5] was ≥ 80%. Also, the “efficiency (100 % means that no tick has lay fertile eggs)” value in data set [3] was ≥ 80%.
In the case of `C[C@H](NC(=S)NCCO)c1ccccc1` [compound 5], the mortality at 500 g/ha in data set [2] was ≥ 80%.
Take `C[C@H](NC(=S)NCCO)c1ccccc1F` [compound 6]: the mortality at 100 g/ha in data set [2] and in data set [4] was ≥ 80% throughout. Further, the “efficiency (100 % means that no tick has lay fertile eggs)” value in data set [3] is given as ≥ 80%.
`C[C@H](NC(=S)NCCO)c1ccccc1F` [EXAMPLE 2]: in data set [1], the chromatographic logP worked out at 1.5.
With `C[C@H](NC(=S)NCCO)c1ccc(F)cc1` [compound 8], the mortality at 500 g/ha in data set [2] is ≥ 80%.
